Measurements as given in ChEMBL document CHEMBL6083220, “Chemically induced degradation of PRC2 complex by EZH2-Targeted PROTACs via a Ubiquitin-Proteasome pathway” (Bioorg Med Chem Lett, 2024).
Calls of active or inactive are those of the source. No cut-off for these calls is given here.

How the values were obtained:
[1] = Antiproliferative activity against human MINO cells by MTT assay; format: functional, cell-based
OCI-Ly7 = assay: Antiproliferative activity against human OCILY7 cells by MTT assay; format: functional, cell-based
[2] = Half-life in ICR mouse at 2 mg/kg, iv; format: ADME, organism-based; conditions: in vivo
[3] = Tmax in ICR mouse at 2 mg/kg, iv; format: ADME, organism-based; conditions: in vivo
[4] = Cmax in ICR mouse at 2 mg/kg, iv; format: ADME, organism-based; conditions: in vivo
[5] = AUC(0 to t) in ICR mouse at 2 mg/kg, iv; format: ADME, organism-based; conditions: in vivo
[6] = AUC(0 to infinity) in ICR mouse at 2 mg/kg, iv; format: ADME, organism-based; conditions: in vivo
[7] = MRT(0 to t) in ICR mouse at 2 mg/kg, iv; format: ADME, organism-based; conditions: in vivo
[8] = MRT(0 to infinity) in ICR mouse at 2 mg/kg, iv; format: ADME, organism-based; conditions: in vivo
[9] = Initial plasma concentration in ICR mouse at 2 mg/kg, iv; format: ADME, organism-based
[10] = Volume of distribution at steady state in ICR mouse at 2 mg/kg, iv; format: ADME, organism-based; conditions: in vivo, read-out: Vdss
[11] = Apparent volume of distribution in ICR mouse at 2 mg/kg, iv; format: ADME, organism-based; conditions: in vivo, read-out: Vz
[12] = Clearance in ICR mouse at 2 mg/kg, iv; format: ADME, organism-based; conditions: in vivo
[13] = Bioavailability in ICR mouse at 2 mg/kg, iv; format: ADME, organism-based; conditions: in vivo
[14] = Half-life in ICR mouse at 10 mg/kg, po; format: ADME, organism-based; conditions: in vivo
[15] = Tmax in ICR mouse at 10 mg/kg, po; format: ADME, organism-based; conditions: in vivo
[16] = Cmax in ICR mouse at 10 mg/kg, po; format: ADME, organism-based; conditions: in vivo
[17] = AUC(0 to t) in ICR mouse at 10 mg/kg, po; format: ADME, organism-based; conditions: in vivo
[18] = AUC(0 to infinity) in ICR mouse at 10 mg/kg, po; format: ADME, organism-based; conditions: in vivo
[19] = MRT(0 to t) in ICR mouse at 10 mg/kg, po; format: ADME, organism-based; conditions: in vivo
[20] = MRT(0 to infinity) in ICR mouse at 10 mg/kg, po; format: ADME, organism-based; conditions: in vivo
MINO [21] = assay: Downregulation of EZH2 protein expression in human MINO cells at 5 uM incubated for 24 hrs by Western blotting assay; format: functional, cell-based
MINO [22] = assay: Downregulation of SUZ12 protein expression in human MINO cells at 5 uM incubated for 24 hrs by Western blotting assay; format: functional, cell-based
MINO [23] = assay: Downregulation of EED protein expression in human MINO cells at 5 uM incubated for 24 hrs by Western blotting assay; format: functional, cell-based
MINO [24] = assay: Downregulation of RbAp48 protein expression in human MINO cells at 5 uM incubated for 24 hrs by Western blotting assay; format: functional, cell-based
MINO [25] = assay: Downregulation of H3k27me3 protein expression in human MINO cells at 5 uM incubated for 24 hrs by Western blotting assay; format: functional, cell-based
[26] = target: Histone-lysine N-methyltransferase EZH2 (Homo sapiens) (UniProt Q15910); assay: Binding affinity to EZH2 in human MINO cells assessed as increase in thermal stability at 5 uM at 5 to 10 degreeC incubated for 24 hrs by CETSA; format: cell-based
[27] = target: Polycomb protein EED (Homo sapiens) (UniProt O75530); assay: Binding affinity to EED in human MINO cells assessed as increase in thermal stability at 5 uM at 5 to 10 degreeC incubated for 24 hrs by CETSA; format: cell-based
[28] = target: Polycomb protein SUZ12 (Homo sapiens) (UniProt Q15022); assay: Binding affinity to SUZ12 in human MINO cells assessed as increase in thermal stability at 5 uM at 5 to 10 degreeC incubated for 24 hrs by CETSA; format: cell-based
MINO [29] = assay: Binding affinity to RbAp48 in human MINO cells assessed as increase in thermal stability at 5 uM at 5 to 10 degreeC incubated for 24 hrs by CETSA; format: cell-based
MINO [30] = assay: PROTAC activity at EZH2/E3 ligase in human MINO cells assessed as reduction in EZH2 protein level incubated for 24 hrs by Western blotting assay; format: cell-based; conditions: dose 0.02-20 µM
MINO [31] = assay: PROTAC activity at EZH2/E3 ligase in human MINO cells assessed as reduction in EZH2 protein level at 1 to 2.5 uM incubated for 24 hrs by Western blotting assay; format: cell-based; conditions: dose 1-2.5 µM
MINO [32] = assay: PROTAC activity at EZH2/E3 ligase in human MINO cells assessed as reduction in EZH2 protein level at 5 uM incubated for 24 hrs by Western blotting assay; format: cell-based; set-up: scale not given: the % may be the effect or the level left
[33] = Induction of cell cycle arrest in human MINO cells assessed as G0/G1 phase cells at 5 uM incubated for 24 hrs by propidium iodide staining based flow cytometry assay (reference value: 67.56%); format: functional
[34] = Induction of cell cycle arrest in human MINO cells assessed as G2/M phase cells at 5 uM incubated for 24 hrs by propidium iodide staining based flow cytometry assay (reference value: 7.26%); format: functional
[35] = Induction of cell cycle arrest in human MINO cells assessed as S phase cells at 5 uM incubated for 24 hrs by propidium iodide staining based flow cytometry assay (reference value: 25.19%); format: functional
[36] = Induction of apoptosis in human MINO cells assessed as viable cells at 5 uM incubated for 24 hrs by Annexin V-FITC/PI staining based flow cytometry assay (reference value: 89.93%); format: functional; conditions: read-out: Activity
[37] = Induction of apoptosis in human MINO cells assessed as early apoptotic cells at 5 uM incubated for 24 hrs by Annexin V-FITC/PI staining based flow cytometry assay (reference value: 1.04%); format: functional
[38] = Induction of apoptosis in human MINO cells assessed as late apoptotic cells at 5 uM incubated for 24 hrs by Annexin V-FITC/PI staining based flow cytometry assay (reference value: 8.29%); format: functional
[39] = Induction of apoptosis in human MINO cells assessed as necrotic cells at 5 uM incubated for 24 hrs by Annexin V-FITC/PI staining based flow cytometry assay (reference value: 0.74%); format: functional
MINO [40] = assay: Induction of mitochondrial apoptosis pathway in human MINO cells assessed as upregulation of cytochrome C expression at 5 uM incubated for 24 hrs by Western blotting assay; format: functional, cell-based
MINO [41] = assay: Induction of mitochondrial apoptosis pathway in human MINO cells assessed as upregulation of bax protein expression at 5 uM incubated for 24 hrs by Western blotting assay; format: functional, cell-based
MINO [42] = assay: Induction of mitochondrial apoptosis pathway in human MINO cells assessed as upregulation of cleaved PARP expression at 5 uM incubated for 24 hrs by Western blotting assay; format: functional, cell-based
MINO [43] = assay: Induction of mitochondrial apoptosis pathway in human MINO cells assessed as downregulation of bcl-2 expression at 5 uM incubated for 24 hrs by Western blotting assay; format: functional, cell-based
MINO [44] = assay: Induction of mitochondrial apoptosis pathway in human MINO cells assessed as downregulation of procaspase-3 expression at 5 uM incubated for 24 hrs by Western blotting assay; format: functional, cell-based
MINO [45] = assay: Induction of mitochondrial apoptosis pathway in human MINO cells assessed as downregulation of procaspase-9 expression at 5 uM incubated for 24 hrs by Western blotting assay; format: functional, cell-based
[46] = Potency index, ratio of tazemetostat IC50 to test compound IC50 for antiproliferative activity against human MINO cells; format: functional

Sequence of Polycomb protein EED (Homo sapiens) (O75530 2-441 limits assumed): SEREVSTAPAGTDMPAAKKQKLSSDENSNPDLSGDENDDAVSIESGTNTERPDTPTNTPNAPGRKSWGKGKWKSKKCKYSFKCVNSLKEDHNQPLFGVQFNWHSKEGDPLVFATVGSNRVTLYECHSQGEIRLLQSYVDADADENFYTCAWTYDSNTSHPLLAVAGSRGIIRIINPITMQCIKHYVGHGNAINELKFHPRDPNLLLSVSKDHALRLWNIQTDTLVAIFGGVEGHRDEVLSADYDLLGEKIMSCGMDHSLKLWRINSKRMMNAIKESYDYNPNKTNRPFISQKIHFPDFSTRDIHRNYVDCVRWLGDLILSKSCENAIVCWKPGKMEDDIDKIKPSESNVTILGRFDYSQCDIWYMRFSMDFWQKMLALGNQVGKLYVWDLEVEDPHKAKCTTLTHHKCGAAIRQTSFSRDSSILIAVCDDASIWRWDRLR
Sequence of Histone-lysine N-methyltransferase EZH2 (Homo sapiens) (Q15910 whole entry, looked up): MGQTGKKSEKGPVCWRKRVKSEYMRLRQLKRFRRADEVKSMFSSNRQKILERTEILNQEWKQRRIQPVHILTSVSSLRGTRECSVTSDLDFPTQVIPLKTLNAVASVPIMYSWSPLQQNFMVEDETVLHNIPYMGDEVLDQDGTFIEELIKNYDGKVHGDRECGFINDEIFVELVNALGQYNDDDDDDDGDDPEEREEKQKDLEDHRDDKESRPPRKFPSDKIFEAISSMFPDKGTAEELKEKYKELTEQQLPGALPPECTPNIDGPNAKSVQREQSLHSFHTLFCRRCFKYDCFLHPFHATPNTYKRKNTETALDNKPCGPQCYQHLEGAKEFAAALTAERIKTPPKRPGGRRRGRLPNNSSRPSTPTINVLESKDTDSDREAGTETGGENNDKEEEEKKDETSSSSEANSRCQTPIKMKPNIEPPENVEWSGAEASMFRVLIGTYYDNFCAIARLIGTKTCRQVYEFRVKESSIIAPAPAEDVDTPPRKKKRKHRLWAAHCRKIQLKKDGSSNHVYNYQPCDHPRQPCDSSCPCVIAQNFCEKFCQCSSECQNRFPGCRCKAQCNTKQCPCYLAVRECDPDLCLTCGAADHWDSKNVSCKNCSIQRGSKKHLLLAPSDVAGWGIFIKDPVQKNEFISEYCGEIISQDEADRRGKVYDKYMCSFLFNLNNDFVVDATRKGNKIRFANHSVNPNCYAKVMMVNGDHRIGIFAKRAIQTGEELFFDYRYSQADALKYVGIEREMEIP
Sequence of Polycomb protein SUZ12 (Homo sapiens) (Q15022 whole entry): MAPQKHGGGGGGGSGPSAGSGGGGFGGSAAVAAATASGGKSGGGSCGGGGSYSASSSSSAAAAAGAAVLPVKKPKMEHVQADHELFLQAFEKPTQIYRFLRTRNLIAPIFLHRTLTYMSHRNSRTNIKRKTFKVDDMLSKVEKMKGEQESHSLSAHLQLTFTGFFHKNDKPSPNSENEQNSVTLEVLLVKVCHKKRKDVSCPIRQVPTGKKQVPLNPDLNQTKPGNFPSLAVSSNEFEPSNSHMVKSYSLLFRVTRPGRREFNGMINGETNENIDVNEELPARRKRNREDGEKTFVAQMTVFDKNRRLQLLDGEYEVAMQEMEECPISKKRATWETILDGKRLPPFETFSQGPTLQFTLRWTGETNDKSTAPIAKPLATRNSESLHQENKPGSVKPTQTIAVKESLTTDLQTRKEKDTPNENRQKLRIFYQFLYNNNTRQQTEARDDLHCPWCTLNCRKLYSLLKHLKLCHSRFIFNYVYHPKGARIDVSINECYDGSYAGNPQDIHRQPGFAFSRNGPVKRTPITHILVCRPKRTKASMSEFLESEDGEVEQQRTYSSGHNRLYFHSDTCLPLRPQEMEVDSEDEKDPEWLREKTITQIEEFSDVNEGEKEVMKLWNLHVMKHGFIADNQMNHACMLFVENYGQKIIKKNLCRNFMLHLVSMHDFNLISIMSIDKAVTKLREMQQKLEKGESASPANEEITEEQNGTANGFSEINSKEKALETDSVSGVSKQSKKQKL

## CCN(c1cc(-c2ccc(CN3CCN(C(=O)CC4CCC(CNc5cccc6c5C(=O)N(C5CCC(=O)NC5=O)C6=O)CC4)CC3)cc2)cc(C(=O)NCc2c(C)cc(C)[nH]c2=O)c1C)C1CCOCC1 (configuration not stated)
[1]
  IC50: 5 nM
OCI-Ly7
  IC50: 150 nM
[2]
  half-life: 21.9 h
[3]
  Tmax: 0.42 h
[4]
  Cmax: 7210 ng/mL
[5]
  AUC(0-t): 98400 ng·h/mL
[6]
  AUC(0-inf): 190000 ng·h/mL
[7]
  MRT last: 9.7 h
[8]
  MRT inf: 31.4 h
[9]
  C0: 6500 ng/mL
[10]
  Vd: 0.323 L/kg
[11]
  Vd: 0.329 L/kg
[12]
  clearance: 0.191 mL/min/kg
[13]
  bioavailability: 6.05%
[14]
  half-life: 11.7 h
[15]
  Tmax: 0.83 h
[16]
  Cmax: 2980 ng/mL
[17]
  AUC(0-t): 29700 ng·h/mL
[18]
  AUC(0-inf): 40500 ng·h/mL
[19]
  MRT last: 8.87 h
[20]
  MRT inf: 17.6 h
MINO [21]
  Activity: Active
MINO [22]
  Activity: Active
MINO [23]
  Activity: Active
MINO [24]
  Activity: Active
MINO [25]
  Activity: Active
[26]
  Activity: Active
[27]
  Activity: inactive
[28]
  Activity: inactive
MINO [29]
  Activity: inactive
MINO [30]
  Activity: Dose-dependent-effect
MINO [31]
  Activity: Active; Significant And Potent Activity Observed
MINO [32]
  Activity: 100%
[33]
  Activity: 79.47%
[34]
  Activity: 6.11%
[35]
  Activity: 14.41%
[36]
  viability at 5 µM: 35.6%
[37]
  Activity: 4.89%
[38]
  Activity: 57.55%
[39]
  Activity: 2%
MINO [40]
  Activity: Active
MINO [41]
  Activity: Active
MINO [42]
  Activity: Active
MINO [43]
  Activity: Active
MINO [44]
  Activity: Active
MINO [45]
  Activity: Active
[46]
  Ratio IC50: 214
